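Where inhibition never reached the appropriate level, the endpoint shown equals the highest concentration tested. Otherwise, values were interpolated linearly from a five-concentration, 48-hour dose response in 96-well plates. Abbreviation: GI50, concentration required for 50% inhibition of growth. Definition used: TGI = concentration required for complete inhibition of growth.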
Columns and labels:
Test in all cases: growth of human tumour cells (NCI), 48 h
NCI-H23 lung = tested on: NCI-H23 lung
UACC-62 melanoma = tested on: UACC-62 melanoma
ACHN renal = tested on: ACHN renal
BT-549 breast = tested on: BT-549 breast
MDA-MB-231 breast = tested on: MDA-MB-231 breast
MOLT-4 leukemia = tested on: MOLT-4 leukemia
SF-539 CNS = tested on: SF-539 CNS
M14 melanoma = tested on: M14 melanoma
SK-MEL-5 melanoma = tested on: SK-MEL-5 melanoma
LOX IMVI melanoma = tested on: LOX IMVI melanoma
786-0 renal = tested on: 786-0 renal
MDA-MB-435 = tested on: MDA-MB-435
A498 renal = tested on: A498 renal
SK-MEL-2 melanoma = tested on: SK-MEL-2 melanoma
U251 CNS = tested on: U251 CNS
HCC-2998 colon = tested on: HCC-2998 colon
K-562 leukemia = tested on: K-562 leukemia
SK-OV-3 ovarian = tested on: SK-OV-3 ovarian
HCT-116 colon = tested on: HCT-116 colon
SK-MEL-28 melanoma = tested on: SK-MEL-28 melanoma
SF-268 CNS = tested on: SF-268 CNS
OVCAR-8 ovarian = tested on: OVCAR-8 ovarian
TK-10 renal = tested on: TK-10 renal
SF-295 CNS = tested on: SF-295 CNS
RXF 393 renal = tested on: RXF 393 renal
HT29 colon = tested on: HT29 colon
OVCAR-4 ovarian = tested on: OVCAR-4 ovarian
IGROV1 ovarian = tested on: IGROV1 ovarian
MCF7 breast = tested on: MCF7 breast
HL-60(TB) leukemia = tested on: HL-60(TB) leukemia
NCI-H522 lung = tested on: NCI-H522 lung
HS 578T breast = tested on: HS 578T breast
NCI/ADR-RES ovarian = tested on: NCI/ADR-RES ovarian
HOP-62 NSCLC = tested on: HOP-62 NSCLC
SN12C renal = tested on: SN12C renal
HOP-92 NSCLC = tested on: HOP-92 NSCLC
DU-145 prostate = tested on: DU-145 prostate
EKVX NSCLC = tested on: EKVX NSCLC
SR leukemia = tested on: SR leukemia
SNB-19 CNS = tested on: SNB-19 CNS
HCT-15 colon = tested on: HCT-15 colon
CAKI-1 renal = tested on: CAKI-1 renal
OVCAR-3 ovarian = tested on: OVCAR-3 ovarian
UACC-257 melanoma = tested on: UACC-257 melanoma
KM12 colon = tested on: KM12 colon
MALME-3M melanoma = tested on: MALME-3M melanoma
T-47D breast = tested on: T-47D breast
CCRF-CEM leukemia = tested on: CCRF-CEM leukemia
COLO 205 colon = tested on: COLO 205 colon
SNB-75 CNS = tested on: SNB-75 CNS
A549 NSCLC = tested on: A549 NSCLC
UO-31 renal = tested on: UO-31 renal
SW-620 colon = tested on: SW-620 colon
RPMI-8226 leukemia = tested on: RPMI-8226 leukemia
PC-3 prostate = tested on: PC-3 prostate
NCI-H460 lung = tested on: NCI-H460 lung
OVCAR-5 ovarian = tested on: OVCAR-5 ovarian
NCI-H226 lung = tested on: NCI-H226 lung

COc1cc(NC(=O)c2cc(O)c(C/C=C(\C)CCC=C(C)C)c(O)c2)cc2c1O[C@]1(C)CC[C@@H](O)C(C)(C)[C@H]1C2
GI50 (NCI-H23 lung): 2.38 µM | TGI (NCI-H23 lung): 12.8 µM | GI50 (UACC-62 melanoma): 1.42 µM | TGI (UACC-62 melanoma): 3.37 µM | GI50 (ACHN renal): 2.21 µM | TGI (ACHN renal): 10.1 µM | GI50 (BT-549 breast): 0.841 µM | TGI (BT-549 breast): 3.55 µM | GI50 (MDA-MB-231 breast): 1.11 µM | TGI (MDA-MB-231 breast): 5.04 µM | GI50 (MOLT-4 leukemia): 0.409 µM | TGI (MOLT-4 leukemia): 5.83 µM | GI50 (SF-539 CNS): 0.348 µM | TGI (SF-539 CNS): 2.38 µM | GI50 (M14 melanoma): 1.48 µM | TGI (M14 melanoma): 4.09 µM | GI50 (SK-MEL-5 melanoma): 1.34 µM | TGI (SK-MEL-5 melanoma): 2.9 µM | GI50 (LOX IMVI melanoma): 1.35 µM | TGI (LOX IMVI melanoma): 2.89 µM | GI50 (786-0 renal): 0.604 µM | TGI (786-0 renal): 6.44 µM | GI50 (MDA-MB-435): 2.01 µM | TGI (MDA-MB-435): 8.19 µM | GI50 (A498 renal): 0.963 µM | TGI (A498 renal): 7.9 µM | GI50 (SK-MEL-2 melanoma): 1.06 µM | TGI (SK-MEL-2 melanoma): 3.43 µM | GI50 (U251 CNS): 0.724 µM | TGI (U251 CNS): 5.33 µM | GI50 (HCC-2998 colon): 2.21 µM | TGI (HCC-2998 colon): 7.22 µM | GI50 (K-562 leukemia): 0.957 µM | TGI (K-562 leukemia): 4.88 µM | GI50 (SK-OV-3 ovarian): 1.79 µM | TGI (SK-OV-3 ovarian): 12.9 µM | GI50 (HCT-116 colon): 2.07 µM | TGI (HCT-116 colon): 12.3 µM | GI50 (SK-MEL-28 melanoma): 1.43 µM | TGI (SK-MEL-28 melanoma): 8.25 µM | GI50 (SF-268 CNS): 1.56 µM | TGI (SF-268 CNS): 5.74 µM | GI50 (OVCAR-8 ovarian): 2.58 µM | TGI (OVCAR-8 ovarian): 14.7 µM | GI50 (TK-10 renal): 3.42 µM | TGI (TK-10 renal): 13.7 µM | GI50 (SF-295 CNS): 0.306 µM | TGI (SF-295 CNS): 1.52 µM | GI50 (RXF 393 renal): 0.209 µM | TGI (RXF 393 renal): 0.747 µM | GI50 (HT29 colon): 1.62 µM | TGI (HT29 colon): 5.79 µM | GI50 (OVCAR-4 ovarian): 2.57 µM | TGI (OVCAR-4 ovarian): 12.7 µM | GI50 (IGROV1 ovarian): 2.45 µM | TGI (IGROV1 ovarian): 11.1 µM | GI50 (MCF7 breast): 1.08 µM | TGI (MCF7 breast): 5.73 µM | GI50 (HL-60(TB) leukemia): 0.549 µM | TGI (HL-60(TB) leukemia): 4.88 µM | GI50 (NCI-H522 lung): 2.02 µM | TGI (NCI-H522 lung): 6.5 µM | GI50 (HS 578T breast): 0.348 µM | TGI (HS 578T breast): 8.75 µM | GI50 (NCI/ADR-RES ovarian): 7.89 µM | TGI (NCI/ADR-RES ovarian): 44.5 µM | GI50 (HOP-62 NSCLC): 1.58 µM | TGI (HOP-62 NSCLC): 8.22 µM | GI50 (SN12C renal): 2.9 µM | TGI (SN12C renal): 12.1 µM | GI50 (HOP-92 NSCLC): 0.627 µM | TGI (HOP-92 NSCLC): 3.89 µM | GI50 (DU-145 prostate): 2.25 µM | TGI (DU-145 prostate): 12.2 µM | GI50 (EKVX NSCLC): 2.25 µM | TGI (EKVX NSCLC): 11.4 µM | GI50 (SR leukemia): 0.418 µM | TGI (SR leukemia): 4.34 µM | GI50 (SNB-19 CNS): 1.36 µM | TGI (SNB-19 CNS): 4.46 µM | GI50 (HCT-15 colon): 2.09 µM | TGI (HCT-15 colon): 7.53 µM | GI50 (CAKI-1 renal): 1.53 µM | TGI (CAKI-1 renal): 11.8 µM | GI50 (OVCAR-3 ovarian): 1.88 µM | TGI (OVCAR-3 ovarian): 5.49 µM | GI50 (UACC-257 melanoma): 2.82 µM | TGI (UACC-257 melanoma): 14.3 µM | GI50 (KM12 colon): 1.63 µM | TGI (KM12 colon): 4.44 µM | GI50 (MALME-3M melanoma): 1.62 µM | TGI (MALME-3M melanoma): 5.39 µM | GI50 (T-47D breast): 1.63 µM | TGI (T-47D breast): 6.95 µM | GI50 (CCRF-CEM leukemia): 0.463 µM | TGI (CCRF-CEM leukemia): 7.21 µM | GI50 (COLO 205 colon): 2.22 µM | TGI (COLO 205 colon): 6.72 µM | GI50 (SNB-75 CNS): 0.444 µM | TGI (SNB-75 CNS): 2.75 µM | GI50 (A549 NSCLC): 1.98 µM | TGI (A549 NSCLC): 6.66 µM | GI50 (UO-31 renal): 2.7 µM | TGI (UO-31 renal): 9.71 µM | GI50 (SW-620 colon): 2.62 µM | TGI (SW-620 colon): 13.1 µM | GI50 (RPMI-8226 leukemia): 0.262 µM | TGI (RPMI-8226 leukemia): 1.32 µM | GI50 (PC-3 prostate): 0.849 µM | TGI (PC-3 prostate): 7.16 µM | GI50 (NCI-H460 lung): 1.97 µM | TGI (NCI-H460 lung): 11.2 µM | GI50 (OVCAR-5 ovarian): 4.09 µM | TGI (OVCAR-5 ovarian): 19.2 µM | GI50 (NCI-H226 lung): 3.34 µM | TGI (NCI-H226 lung): 16.2 µM
